# From ChEMBL document CHEMBL5528083, “Discovery of a Novel Thienopyrimidine Compound as a Urate Transporter 1 and Glucose Transporter 9 Dual Inhibitor with Improved Efficacy and Favorable Druggability” (J Med Chem, 2024)
# Key:
# Mus musculus [1] = organism: Mus musculus; assay: Reduction in serum uric acid level in acute hyperuricemia state Kunming mouse model assessed as SUA level by measuring decrease ratio relative to control; type: functional; set-up: concentration or dose not given beside the values
# Mus musculus [2] = organism: Mus musculus; assay: Reduction in serum uric acid level in acute hyperuricemia state Kunming mouse model assessed as SUA level; type: functional
# [3] = target: T1, Solute carrier family 22 member 12 (Homo sapiens, UniProt Q96S37); assay: Inhibition of human URAT1 expressed in HEK293T cells using 14C- uric acid assessed as uric acid absorption by measuring intracellular liquid radiation value by liquid scintillation counting analysis; type: cell-based
# T1 sequence (Q96S37 whole entry): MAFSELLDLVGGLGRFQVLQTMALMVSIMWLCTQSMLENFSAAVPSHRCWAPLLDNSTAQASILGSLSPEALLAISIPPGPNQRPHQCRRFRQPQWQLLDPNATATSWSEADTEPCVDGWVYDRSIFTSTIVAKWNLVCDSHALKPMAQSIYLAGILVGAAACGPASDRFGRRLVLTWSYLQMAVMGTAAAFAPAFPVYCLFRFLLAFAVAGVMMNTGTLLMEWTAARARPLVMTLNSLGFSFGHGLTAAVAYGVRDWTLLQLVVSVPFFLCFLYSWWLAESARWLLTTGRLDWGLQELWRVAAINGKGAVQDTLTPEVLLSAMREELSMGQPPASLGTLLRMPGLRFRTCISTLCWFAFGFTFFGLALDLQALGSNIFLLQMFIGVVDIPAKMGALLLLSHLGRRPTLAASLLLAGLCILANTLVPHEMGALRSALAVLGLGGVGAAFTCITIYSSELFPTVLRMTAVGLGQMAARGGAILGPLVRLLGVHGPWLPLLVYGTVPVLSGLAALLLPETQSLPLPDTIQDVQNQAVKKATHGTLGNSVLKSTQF
# Mus musculus [4] = assay: Reduction in serum uric acid level in acute hyperuricemia state Kunming mouse model assessed as SUA level at 2 mg/kg, po (reference value: 1037 +/- 106.59 uM); type: functional
# [5] = target: Xanthine dehydrogenase/oxidase (Bos taurus, UniProt P80457); assay: Inhibition of bovine XOD using xanthine as substrate assessed as inhibitory ratio at 10 uM by spectrophotometric analysis relative to control; details: cattle
# Xanthine dehydrogenase/oxidase, sequence (P80457 whole entry): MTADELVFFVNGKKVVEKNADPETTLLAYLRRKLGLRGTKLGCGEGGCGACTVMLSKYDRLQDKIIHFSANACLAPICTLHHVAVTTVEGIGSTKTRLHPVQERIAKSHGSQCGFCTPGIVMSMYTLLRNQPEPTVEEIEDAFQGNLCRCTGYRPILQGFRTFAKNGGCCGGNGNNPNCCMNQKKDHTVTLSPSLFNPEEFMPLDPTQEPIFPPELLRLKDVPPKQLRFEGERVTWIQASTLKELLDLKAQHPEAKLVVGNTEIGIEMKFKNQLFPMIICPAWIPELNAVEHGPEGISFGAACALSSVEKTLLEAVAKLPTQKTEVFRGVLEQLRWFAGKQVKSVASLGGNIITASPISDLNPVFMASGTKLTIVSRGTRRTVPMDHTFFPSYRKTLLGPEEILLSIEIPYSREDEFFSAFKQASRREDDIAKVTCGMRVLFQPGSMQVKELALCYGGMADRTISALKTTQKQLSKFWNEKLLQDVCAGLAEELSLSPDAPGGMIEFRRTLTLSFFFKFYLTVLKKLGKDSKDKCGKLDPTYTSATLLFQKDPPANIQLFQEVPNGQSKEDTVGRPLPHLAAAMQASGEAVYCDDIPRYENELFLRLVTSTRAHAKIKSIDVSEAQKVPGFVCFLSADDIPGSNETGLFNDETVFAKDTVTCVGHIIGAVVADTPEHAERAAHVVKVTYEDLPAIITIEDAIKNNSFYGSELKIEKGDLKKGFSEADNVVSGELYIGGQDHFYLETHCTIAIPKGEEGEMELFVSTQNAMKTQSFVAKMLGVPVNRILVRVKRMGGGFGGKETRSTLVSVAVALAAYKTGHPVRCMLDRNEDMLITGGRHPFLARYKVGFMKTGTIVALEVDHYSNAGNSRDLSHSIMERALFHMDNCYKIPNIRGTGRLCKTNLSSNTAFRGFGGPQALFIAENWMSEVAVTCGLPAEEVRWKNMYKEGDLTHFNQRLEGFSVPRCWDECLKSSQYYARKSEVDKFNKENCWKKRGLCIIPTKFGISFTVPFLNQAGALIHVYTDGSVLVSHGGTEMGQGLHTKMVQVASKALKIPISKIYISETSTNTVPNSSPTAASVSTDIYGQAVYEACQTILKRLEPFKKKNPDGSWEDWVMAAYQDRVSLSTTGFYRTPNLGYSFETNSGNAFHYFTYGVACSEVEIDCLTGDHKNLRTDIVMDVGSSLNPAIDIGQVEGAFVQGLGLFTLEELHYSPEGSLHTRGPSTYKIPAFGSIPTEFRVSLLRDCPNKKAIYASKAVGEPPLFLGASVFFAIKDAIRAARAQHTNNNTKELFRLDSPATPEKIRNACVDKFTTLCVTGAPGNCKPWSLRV
# [6] = target: T2, Solute carrier family 2, facilitated glucose transporter member 9 (Mus musculus) (UniProt Q3T9X0); assay: Inhibition of mouse EGFP-tagged GLUT9 expressed in HEK293T cells assessed as inhibition rate by measuring relative current at 5 uM by patch clamp electrophysiological analysis relative to control; type: cell-based; set-up: scale not given: the % may be the effect or the level left
# T2 sequence (whole entry): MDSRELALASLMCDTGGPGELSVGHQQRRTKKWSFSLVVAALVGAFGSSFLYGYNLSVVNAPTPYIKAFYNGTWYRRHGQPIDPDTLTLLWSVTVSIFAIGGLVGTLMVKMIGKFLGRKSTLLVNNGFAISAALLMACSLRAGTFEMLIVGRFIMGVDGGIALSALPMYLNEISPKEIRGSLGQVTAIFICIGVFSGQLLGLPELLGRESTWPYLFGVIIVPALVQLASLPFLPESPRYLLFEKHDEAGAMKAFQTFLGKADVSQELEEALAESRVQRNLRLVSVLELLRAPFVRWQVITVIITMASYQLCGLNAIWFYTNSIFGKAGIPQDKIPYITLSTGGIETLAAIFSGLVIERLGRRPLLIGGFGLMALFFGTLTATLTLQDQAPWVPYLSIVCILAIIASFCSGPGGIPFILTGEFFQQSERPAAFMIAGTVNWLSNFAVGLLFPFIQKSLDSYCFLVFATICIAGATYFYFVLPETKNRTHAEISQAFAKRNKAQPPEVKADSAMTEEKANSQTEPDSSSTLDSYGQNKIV
Structure (SMILES),Activity (Mus musculus [1]) [%],Activity (Mus musculus [2]) [µM],also measured
COc1cc2nc(SCCCC(=O)O)nc(Nc3ccc(C4CC4)c4ccccc34)c2cc1OC,62.3,465.4,
CC(Sc1nccc(Nc2ccc(C3CC3)c3ccccc23)n1)C(=O)O (stereo not given),88.9,234,
COc1cc2nc(SC3(C(=O)O)CCC3)nc(Nc3ccc(C4CC4)c4ccccc34)c2cc1OC,89.1,214.4,
O=C(O)C1(Sc2nc(Nc3ccc(C4CC4)c4ccccc34)c3ccccc3n2)CCC1,51.6,608.8,
CC(C)(Sc1nc2c(c(Nc3ccc(C4CC4)c4ccccc34)n1)CCC2)C(=O)O,92.2,256.6,IC50 [3]: 3.96 µM
CC(Sc1nc2c(c(Nc3ccc(C4CC4)c4ccccc34)n1)CCC2)C(=O)O (stereo not given),52.6,594.6,
COc1cc2nc(SCCC(=O)O)nc(Nc3ccc(C4CC4)c4ccccc34)c2cc1OC,23.6,828,
O=C(O)CCSc1nc(Nc2ccc(C3CC3)c3ccccc23)c2ccccc2n1,84.7,276.2,
CC(C)(Sc1nc(Nc2ccc(C3CC3)c3ccccc23)c2sccc2n1)C(=O)O,68.5,425.4,
COc1cc2nc(SC(C)C(=O)O)nc(Nc3ccc(C4CC4)c4ccccc34)c2cc1OC (stereo not given),1,1039.4,
O=C(O)CSc1nc(Nc2ccc(C3CC3)c3ccccc23)c2sccc2n1,1.1,1062.6,
O=C(O)C1(Sc2nc(Nc3ccc(C4CC4)c4ccccc34)c3ccsc3n2)CCC1,35.8,734.6,
O=C(O)CCCSc1nc(Nc2ccc(C3CC3)c3ccccc23)c2ccc(F)cc2n1,9.9,944.6,
CC(Sc1nc2ncccc2n1-c1ccc(C2CC2)c2ccccc12)C(=O)O (stereo not given),,,Activity (Mus musculus [4]): 706.25 µM
O=C(O)CCCSc1nc(Nc2ccc(C3CC3)c3ccccc23)c2ccccc2n1,64.6,478.2,
CC(Sc1nc2c(c(Nc3ccc(C4CC4)c4ccccc34)n1)SCC2)C(=O)O (stereo not given),,1114.8,
CC(C)(Sc1nc2c(c(Nc3ccc(C4CC4)c4ccccc34)n1)SCC2)C(=O)O,87.5,297.2,
O=C(O)CCCSc1nc2c(c(Nc3ccc(C4CC4)c4ccccc34)n1)SCC2,62,514.4,
O=C(O)CSc1nc(Nc2ccc(C3CC3)c3ccccc23)c2ccsc2n1,74.5,368.2,

Structure (SMILES),Activity (Mus musculus [1]) [%],Activity (Mus musculus [2]) [µM],also measured
O=C(O)CCSc1nc2c(c(Nc3ccc(C4CC4)c4ccccc34)n1)CCC2,95.7,226.6,IC50 [3]: 3.75 µM
CC(Sc1nc(Nc2ccc(C3CC3)c3ccccc23)c2ccccc2n1)C(=O)O (stereo not given),21.5,911.8,
COc1cc2nc(SCC(=O)O)nc(Nc3ccc(C4CC4)c4ccccc34)c2cc1OC,91.3,193.4,IC50 [3]: 4.86 µM
CC(C)(Sc1nc(Nc2ccc(C3CC3)c3ccccc23)c2ccc(F)cc2n1)C(=O)O,82.4,284.8,
O=C(O)CCSc1nc(Nc2ccc(C3CC3)c3ccccc23)c2ccc(F)cc2n1,13.5,912.4,
O=C(O)CSc1nc2c(c(Nc3ccc(C4CC4)c4ccccc34)n1)SCC2,88.8,285.8,
COc1cc2nc(SC(C)(C)C(=O)O)nc(Nc3ccc(C4CC4)c4ccccc34)c2cc1OC,7.8,976.2,
O=C(O)CCSc1nc2c(c(Nc3ccc(C4CC4)c4ccccc34)n1)COC2,26.1,797.6,
CC(C)(Sc1nc2c(c(Nc3ccc(C4CC4)c4ccccc34)n1)COC2)C(=O)O,,1040,
O=C(O)C1(Sc2nc(Nc3ccc(C4CC4)c4ccccc34)c3sccc3n2)CCC1,34.8,744,
O=C(O)CSc1nccc(Nc2ccc(C3CC3)c3ccccc23)n1,68.2,442.4,
CC(Sc1nc(Nc2ccc(C3CC3)c3ccccc23)c2ccsc2n1)C(=O)O (stereo not given),20,884,
O=C(O)CSc1nc(Nc2ccc(C3CC3)c3ccccc23)c2ccc(F)cc2n1,90.6,210.4,
O=C(O)C1(Sc2nc(Nc3ccc(C4CC4)c4ccccc34)c3ccc(F)cc3n2)CCC1,33,734.6,
Cc1nc(-c2ccc(OCC(C)C)c(C#N)c2)sc1C(=O)O [FEBUXOSTAT],,,inhibition at 10 µM [5]: 102%
CC(Sc1nc2c(c(Nc3ccc(C4CC4)c4ccccc34)n1)COC2)C(=O)O (stereo not given),4.5,994.41,
O=C(O)CCSc1nc(Nc2ccc(C3CC3)c3ccccc23)c2ccsc2n1,92.7,196.4,
O=C(O)CCCSc1nc2c(c(Nc3ccc(C4CC4)c4ccccc34)n1)COC2,,1120.8,
CC(C)(Sc1nccc(Nc2ccc(C3CC3)c3ccccc23)n1)C(=O)O,91,212.6,IC50 [3]: 2.51 µM

Structure (SMILES),Activity (Mus musculus [1]) [%],Activity (Mus musculus [2]) [µM],also measured
O=C(O)CSc1nc2c(c(Nc3ccc(C4CC4)c4ccccc34)n1)CCC2,24.9,831.4,
O=C(O)CCSc1nc(Nc2ccc(C3CC3)c3ccccc23)c2sccc2n1,91.3,209.6,IC50 [3]: 2.75 µM
CCc1oc2ccccc2c1C(=O)c1cc(Br)c(O)c(Br)c1 [BENZBROMARONE],37.3,753.2,Activity [6]: 74.7%
O=C(O)CCSc1nc2c(c(Nc3ccc(C4CC4)c4ccccc34)n1)SCC2,3.54,1013.8,
O=C(O)C1(Sc2nc3c(c(Nc4ccc(C5CC5)c5ccccc45)n2)SCC3)CCC1,3.42,1014.8,
O=C(O)C1(Sc2nc3c(c(Nc4ccc(C5CC5)c5ccccc45)n2)COC3)CCC1,1.5,1021.4,
O=C(O)CCSc1nccc(Nc2ccc(C3CC3)c3ccccc23)n1,24.6,880.2,
O=C(O)CSc1nc2c(c(Nc3ccc(C4CC4)c4ccccc34)n1)COC2,2.3,1014.4,
O=C(O)CCCSc1nccc(Nc2ccc(C3CC3)c3ccccc23)n1,92.4,198.2,IC50 [3]: 4.73 µM
O=C(O)CSc1nc(Nc2ccc(C3CC3)c3ccccc23)c2ccccc2n1,82.9,294.2,
O=C(O)C1(Sc2nc3c(c(Nc4ccc(C5CC5)c5ccccc45)n2)CCC3)CCC1,50.3,614.6,
CC(C)(Sc1nc(Nc2ccc(C3CC3)c3ccccc23)c2ccsc2n1)C(=O)O,66.2,447.2,
CC(Sc1nc(Nc2ccc(C3CC3)c3ccccc23)c2sccc2n1)C(=O)O (stereo not given),69.9,412,
O=C(O)C1(Sc2nccc(Nc3ccc(C4CC4)c4ccccc34)n2)CCC1,58.7,537.8,
O=C(O)CCCSc1nc2c(c(Nc3ccc(C4CC4)c4ccccc34)n1)CCC2,22.6,851,
CC(Sc1nc(Nc2ccc(C3CC3)c3ccccc23)c2ccc(F)cc2n1)C(=O)O (stereo not given),60.7,482.4,
O=C(O)CCCSc1nc(Nc2ccc(C3CC3)c3ccccc23)c2ccsc2n1,89.6,225,
CC(C)(Sc1nc(Nc2ccc(C3CC3)c3ccccc23)c2ccccc2n1)C(=O)O,92.2,200.8,IC50 [3]: 4.35 µM
